The test system of series [1] is 3T3-L1 adipocytes. Nature of the series: Forskolin-stimulated lipolysis of differentiated 3T3-L1 adipocytes. The class given is cell-based, mouse. To be noted: 10 µM forskolin-stimulated, dose dependent (0-50 µM). The protocol:
(§1) • Figure 1. Structure of compounds 1 to 3 (reference) and compound 4 (atglistatin) and effect on ATGL activity. For determination of lipase activity, lysates of E. coli overexpressing recombinant strep-tagged ATGL and CGI-58 were incubated with a substrate containing radiolabeled [9,10-3H(N)]-triolein. Subsequently, FA were extracted and quantified by liquid scintillation counting. Lysates of cells expressing empty vector were set as blank. Inhibitors were solubilized in DMSO and added at the indicated concentrations. DMSO alone was used as negative control. (A) Structure and IC50 values of compounds 1-4. (B) Dose-dependent inhibition of ATGL in the presence of compound 3 and 4. […] (C) Lineweaver-Burk plots for kinetic analysis of ATGL inhibition. Experiments were performed at varying concentrations of substrate (0.05 - 3 mM) in presence and absence of compound 4 (Atglistatin). […] Lipase activity of ATGL, HSL, lipoprotein lipase, and pancreatic lipase was determined using triolein as substrate. MGL activity was detected in the presence of rac-(1,3)-monooleoylglycerol as substrate. […] The release of FA (A) and glycerol (B) in the media was determined using commercial kits. […] At the indicated timepoints blood was taken retroorbitally and plasma parameters were measured using commercial kits. […] 8 h after gavage blood was taken retroorbitally and plasma parameters were measured using commercial kits. […]

Series [2] can be described thus: Tissue TG content after oral gavage in fasted mice. The class given is in vivo, C57BI6 mice. The method, then: Animals. Mice (C57BI/6J) were maintained on a regular light-dark cycle (14 hours light, 10 hours dark) and kept on a standard laboratory chow diet (4.5% wt/wt fat, Sniff GMBH Germany). Maintenance, handling, and tissue collection from mice has been approved by the Austrian Federal Ministry of Science and Research Education and by the ethics committee of the University of Graz. Atglistatin was orally administrated by gavage of 200 µl olive oil containing Atglistatin.
Determination of tissue TG content. For tissue collection mice were euthanized by cervical dislocation. Subsequently, tissues were excised and snap frozen. After homogenisation in buffer A without DTT, TG was measured using TG reagent (Thermo Electron Corp., Victoria, Australia).
Table 1. Inhibition of lipolysis in vivo. C57BI6 mice were fasted overnight and received an oral gavage containing 200 µmol/kg Atglistatin dissolved in olive oil, or olive oil as control. After 8 h blood was taken retroorbitally and mice were sacrificed. (A) Plasma parameters were measured using commercial kits. (B) Tissue triglyceride (TG) and protein levels were determined in whole tissue lysates and are presented as TG (nmol) per protein (mg). Data are presented as mean + S.D. (*, p < 0.05 **, p < 0.01; ***, p < 0.001). n = 7

The target in series [3] is T1, recombinant ATGL (Mus musculus, UniProt Q8BJ56).
T1 construct: Strep-tag; made in house; host or cells: E. coli (XL-1), vector pASK-IBA5+; crude lysate supernatant, not purified
T1 sequence (Q8BJ56 1-486): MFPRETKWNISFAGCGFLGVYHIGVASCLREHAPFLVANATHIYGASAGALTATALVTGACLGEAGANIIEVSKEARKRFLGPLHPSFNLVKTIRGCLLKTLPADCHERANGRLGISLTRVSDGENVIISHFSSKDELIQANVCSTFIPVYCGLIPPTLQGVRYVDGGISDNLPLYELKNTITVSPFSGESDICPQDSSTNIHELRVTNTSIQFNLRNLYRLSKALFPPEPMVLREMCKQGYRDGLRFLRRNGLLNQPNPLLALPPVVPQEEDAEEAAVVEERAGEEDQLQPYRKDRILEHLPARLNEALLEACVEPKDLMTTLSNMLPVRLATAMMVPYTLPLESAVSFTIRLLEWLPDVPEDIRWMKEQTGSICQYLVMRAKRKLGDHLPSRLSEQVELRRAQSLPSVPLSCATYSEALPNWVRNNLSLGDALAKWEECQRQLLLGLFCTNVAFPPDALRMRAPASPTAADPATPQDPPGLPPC
Nature of the series: TG hydrolase activity of E. coli lysates overexpressing recombinant strep-tagged ATGL and CGI-58, radiolabeled triolein substrate. The format is biochemical. The protocol: • Figure 1. Structure of compounds 1 to 3 (reference) and compound 4 (atglistatin) and effect on ATGL activity. For determination of lipase activity, lysates of E. coli overexpressing recombinant strep-tagged ATGL and CGI-58 were incubated with a substrate containing radiolabeled [9,10-3H(N)]-triolein. Subsequently, FA were extracted and quantified by liquid scintillation counting. Lysates of cells expressing empty vector were set as blank. Inhibitors were solubilized in DMSO and added at the indicated concentrations. DMSO alone was used as negative control. (A) Structure and IC50 values of compounds 1-4. (B) Dose-dependent inhibition of ATGL in the presence of compound 3 and 4. […] (C) Lineweaver-Burk plots for kinetic analysis of ATGL inhibition. Experiments were performed at varying concentrations of substrate (0.05 - 3 mM) in presence and absence of compound 4 (Atglistatin). […] Data are presented as mean +/-S.D. of triplicate determinations. Data for compound 4 are representative for at least three independent experiments. • Figure 2. Selectivity of Atglistatin. Lipase activity of ATGL, HSL, lipoprotein lipase, and pancreatic lipase was determined using triolein as substrate. MGL activity was detected in the presence of rac-(1,3)-monooleoylglycerol as substrate. Inhibitors were solubilized in DMSO and added at the indicated concentrations. DMSO alone was used as negative control. (A) Dose-dependent inhibition of TG hydrolase activity in WAT lysates obtained from wild-type and ATGL-ko mice. (B) Inhibition of TG hydrolase activity in wild-type WAT lysates by Atglistatin (40 µM) and by the HSL inhibitor Hi 76-0079 (20 µM). (C) Effect of Atglistatin on murine MGL (purified from E. coli), and murine HSL (overexpressed in COS-7 lysates) activity. (D) Effect of Atglistatin on purified bovine LPL (Sigma) and pancreatic lipase (from porcine pancreas, Sigma). Data are presented as mean +/- S.D. of triplicate determinations and are representative for at least three independent experiments (p < 0.05 **, p < 0.01; ***, p < 0.001). • Figure 3 Inhibition of lipolysis in 3T3-L1 adipocytes and WAT organ cultures. (A,B) Differentiated 3T3 cells were preincubated with the indicated concentrations of Atglistatin. Thereafter, the medium was replaced by DMEM containing 2% BSA (fatty acid free), 10 µM forskolin, in the presence or absence of inhibitors. The release of FA (A) and glycerol (B) in the media was determined using commercial kits. Basal FA and glycerol release (not shown) was barely detectable under the applied conditions. Data are presented as mean +/- SD and are representative for 2 independent experiments. (C-F) Effect of Atglistatin on WAT basal (C, D) and forskolin-stimulated (E, F) lipolysis. Adipose tissue pieces (∼15 mg, n=5 for each concentration) of wild-type mice were cultured for 8 h in DMEM containing 2 % FA-free BSA and the indicated concentrations of Atglistatin. Subsequently, the medium was replaced by identical fresh medium and samples were collected after incubation for another hour in the presence or in the absence of 10 µM forskolin. Atglistatin was solubilized in DMSO and DMSO alone was used as negative control. Data are presented as mean +/- S.D. (*, p < 0.05 **, p < 0.01; ***, p < 0.001). • Figure 4 Inhibition of lipolysis in vivo. […] At the indicated timepoints blood was taken retroorbitally and plasma parameters were measured using commercial kits. […] 8 h after gavage blood was taken retroorbitally and plasma parameters were measured using commercial kits. […]

Series [4] concerns WAT organ cultures. Nature of the series: Lipolysis of isolated WAT organ cultures. The class given is cell-based, C57BI6 mice. To be noted: 8 h incubation. The protocol: • Figure 1. Structure of compounds 1 to 3 (reference) and compound 4 (atglistatin) and effect on ATGL activity. For determination of lipase activity, lysates of E. coli overexpressing recombinant strep-tagged ATGL and CGI-58 were incubated with a substrate containing radiolabeled [9,10-3H(N)]-triolein. Subsequently, FA were extracted and quantified by liquid scintillation counting. Lysates of cells expressing empty vector were set as blank. Inhibitors were solubilized in DMSO and added at the indicated concentrations. DMSO alone was used as negative control. (A) Structure and IC50 values of compounds 1-4. (B) Dose-dependent inhibition of ATGL in the presence of compound 3 and 4. […] (C) Lineweaver-Burk plots for kinetic analysis of ATGL inhibition. Experiments were performed at varying concentrations of substrate (0.05 - 3 mM) in presence and absence of compound 4 (Atglistatin). […] Data are presented as mean +/-S.D. of triplicate determinations. Data for compound 4 are representative for at least three independent experiments. • Figure 2. Selectivity of Atglistatin. Lipase activity of ATGL, HSL, lipoprotein lipase, and pancreatic lipase was determined using triolein as substrate. MGL activity was detected in the presence of rac-(1,3)-monooleoylglycerol as substrate. Inhibitors were solubilized in DMSO and added at the indicated concentrations. DMSO alone was used as negative control. (A) Dose-dependent inhibition of TG hydrolase activity in WAT lysates obtained from wild-type and ATGL-ko mice. (B) Inhibition of TG hydrolase activity in wild-type WAT lysates by Atglistatin (40 µM) and by the HSL inhibitor Hi 76-0079 (20 µM). (C) Effect of Atglistatin on murine MGL (purified from E. coli), and murine HSL (overexpressed in COS-7 lysates) activity. […] The release of FA (A) and glycerol (B) in the media was determined using commercial kits. […] At the indicated timepoints blood was taken retroorbitally and plasma parameters were measured using commercial kits. […] 8 h after gavage blood was taken retroorbitally and plasma parameters were measured using commercial kits. […]

Series [5] has as its system TG hydrolase activity in lysates obtained from ATGL-ko animals. Nature of the series: TG hydrolase activity in WAT lysates of ATGL-ko mice. The format is biochemical. To be noted: at concentrations ≥ 20 µM. The protocol:
as §1

Experimental findings from patent publication EP2948433B1, “ATGLISTATIN AS LIPASE INHIBITOR” (Technische Universität Graz, priority 2013, dated 2014) are described below.

Usually Ki stands for a dissociation constant, usually derived from enzyme kinetics or from competition with a known ligand. What is called IC50 is the concentration that inhibits the measured activity by half. On to `CN(C)C(=O)Nc1cccc(-c2ccc(N(C)C)cc2)c1` [Atglistatin, atglistatin], for which, in series [1], the “inhibition of FA release” value is reported as “almost complete inhibition” and the “inhibition of glycerol release” value is approximately 90%. Also, in series [2] (200 µmol/kg oral gavage, after 8 h, mean ± S.D., n = 7), the “Tissue triglyceride (TG), skeletal muscle” value was 99 ± 13 nmol TG /mg protein. Also, the “accumulation of TG in cardiac muscle and other tissues” value in series [2] (mouse, in vivo) is listed as “did not promote the accumulation of TG”. The Ki in series [3] amounted to 500 ± 200 nM. For the same compound, in series [3] (increase in apparent Km, unchanged Vmax, substrate 0.05 - 3 mM), the “mechanism of ATGL inhibition” value is on record as “competitive inhibitor”. Further, the concentration for half-maximal inhibition (IC50) in series [3] (inhibition of the activity of recombinant ATGL) was found to be 700 nM. Moreover, the basal lipolysis result in series [4] (dose dependent (0-50 µM)) is recorded as “reduced basal lipolysis”. In addition, in series [4] (up to, 10 µM forskolin), the “reduction of forskolin-stimulated FA release” value is on record as “up to 72%” and the “reduction of forskolin-stimulated glycerol release” value is on record as not above 66%. In addition, the “effect on the residual TG hydrolase activity in ATGL-ko lysates” value in series [5] is reported as “moderate but significant effect”.
